Results taken from PubChem BioAssay AID180 (DTP/NCI, 2004).
Where “and” joins values, the source holds several entries; their conditions need not be identical. Equal entries are not always repeated.

Tested on: BDF1 mice, Adenocarcinoma 755 s.c., tumor weight T/C
Assay: NCI In Vivo Anticancer Drug Screen. Data for tumor model Adenocarcinoma 755 (subcutaneous) in B6D2F1 (BDF1) mice
Conditions: endpoint: mean tumor weight, higher = larger tumour
Outline: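 Tumor-bearing mice receive test compound while controls get vehicle alone. Antitumor effect is scored from survival or tumor dimensions as a T/C quotient.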

[1] = dose: 0.25 mg/kg/injection, schedule: Q01DX011 (ip), vehicle: carboxymethylcellulose (CMC)
[2] = dose: 1.0 mg/kg/injection, schedule: Q01DX011 (ip), vehicle: carboxymethylcellulose (CMC)
[3] = dose: 2.0 mg/kg/injection, schedule: Q01DX011 (ip), vehicle: carboxymethylcellulose (CMC)

## CO[C@@]12[C@H](COC(N)=O)C3=C(C(=O)C(C)=C(N)C3=O)N1C[C@@H]1N[C@@H]12
dose: 0.1 mg/kg/injection, schedule: Q01DX011 (ip), vehicle: carboxymethylcellulose (CMC)
  T/C: 82 % of control
dose: 0.1 mg/kg/injection, schedule: Q01DX011 (ip), vehicle: methylcellulose (MC)
  T/C: 60 % of control
dose: 0.2 mg/kg/injection, schedule: Q01DX011 (ip), vehicle: carboxymethylcellulose (CMC)
  T/C: 79 % of control
[1]
  T/C: 69 % of control
dose: 0.32 mg/kg/injection, schedule: Q01DX011 (ip), vehicle: carboxymethylcellulose (CMC)
  T/C: 92 % of control and 116 % of control
dose: 0.5 mg/kg/injection, schedule: Q01DX011 (ip), vehicle: carboxymethylcellulose (CMC)
  T/C: 17 % of control
dose: 0.5 mg/kg/injection, schedule: Q01DX011 (ip), vehicle: methylcellulose (MC)
  T/C: 26 % of control
dose: 0.53 mg/kg/injection, schedule: Q01DX011 (ip), vehicle: carboxymethylcellulose (CMC)
  T/C: 63 % of control and 71 % of control
dose: 0.82 mg/kg/injection, schedule: Q01DX011 (ip), vehicle: carboxymethylcellulose (CMC)
  T/C: 22 % of control
[2]
  T/C: 8 % of control
dose: 1.0 mg/kg/injection, schedule: Q01DX011 (ip), vehicle: methylcellulose (MC)
  T/C: 12 % of control
dose: 1.02 mg/kg/injection, schedule: Q01DX011 (ip), vehicle: carboxymethylcellulose (CMC)
  T/C: 14 % of control
dose: 1.36 mg/kg/injection, schedule: Q01DX011 (ip), vehicle: carboxymethylcellulose (CMC)
  T/C: 5 % of control
[3]
  T/C: 1 % of control
dose: 180.0 micrograms/kg/injection, schedule: Q01DX011 (ip), vehicle: carboxymethylcellulose (CMC)
  T/C: 89 % of control
dose: 300.0 micrograms/kg/injection, schedule: Q01DX011 (ip), vehicle: carboxymethylcellulose (CMC)
  T/C: 86 % of control
dose: 450.0 micrograms/kg/injection, schedule: Q01DX011 (ip), vehicle: carboxymethylcellulose (CMC)
  T/C: 24 % of control and 29 % of control
dose: 512.0 micrograms/kg/injection, schedule: Q01DX011 (ip), vehicle: carboxymethylcellulose (CMC)
  T/C: 87 % of control
dose: 900.0 micrograms/kg/injection, schedule: Q01DX011 (ip), vehicle: carboxymethylcellulose (CMC)
  T/C: 5 % of control
dose: 1025.0 micrograms/kg/injection, schedule: Q01DX011 (ip), vehicle: carboxymethylcellulose (CMC)
  T/C: 63 % of control
dose: 2050.0 micrograms/kg/injection, schedule: Q01DX011 (ip), vehicle: carboxymethylcellulose (CMC)
  T/C: 8 % of control

## CC(=O)CSc1nc(N)nc2nc[nH]c12
dose: 3.9 mg/kg/injection, schedule: Q01DX011 (ip), vehicle: methylcellulose (MC)
  T/C: 32 % of control
dose: 7.8 mg/kg/injection, schedule: Q01DX011 (ip), vehicle: methylcellulose (MC)
  T/C: 6 % of control
dose: 15.6 mg/kg/injection, schedule: Q01DX011 (ip), vehicle: methylcellulose (MC)
  T/C: 7 % of control

## O=P(N1CCCC1)(N1CC1)N1CC1
dose: 0.2 mg/kg/injection, schedule: Q01DX011 (ip), vehicle: saline
  T/C: 94 % of control and 75 % of control
[1]
  T/C: 110 % of control
dose: 0.5 mg/kg/injection, schedule: Q01DX011 (ip), vehicle: saline
  T/C: 54 % of control and 79 % of control
[2]
  T/C: 42 % of control
dose: 1.0 mg/kg/injection, schedule: Q01DX011 (ip), vehicle: saline
  T/C: 8 % of control and 21 % of control
[3]
  T/C: 46 % of control
dose: 2.0 mg/kg/injection, schedule: Q01DX011 (ip), vehicle: saline
  T/C: 3 % of control
dose: 4.0 mg/kg/injection, schedule: Q01DX011 (ip), vehicle: carboxymethylcellulose (CMC)
  T/C: 23 % of control
dose: 6.0 mg/kg/injection, schedule: Q01DX011 (ip), vehicle: carboxymethylcellulose (CMC)
  T/C: 8 % of control
dose: 8.0 mg/kg/injection, schedule: Q01DX011 (ip), vehicle: carboxymethylcellulose (CMC)
  T/C: 11 % of control
dose: 12.0 mg/kg/injection, schedule: Q01DX011 (ip), vehicle: saline
  T/C: 3 % of control

## CC(C)CCCCCCCCCCCCC(=O)NCC(=O)NC1C(O)C(O)C(Nc2ncnc3nc[nH]c23)OC1C(O)CO (stereo unspecified)
dose: 0.11 mg/kg/injection, schedule: Q## X000 (ip), vehicle: carboxymethylcellulose (CMC)
  T/C: 62 % of control
dose: 0.22 mg/kg/injection, schedule: Q01DX011 (ip), vehicle: carboxymethylcellulose (CMC)
  T/C: 65 % of control
dose: 0.22 mg/kg/injection, schedule: Q## X000 (ip), vehicle: carboxymethylcellulose (CMC)
  T/C: 41 % of control
dose: 0.45 mg/kg/injection, schedule: Q01DX011 (ip), vehicle: carboxymethylcellulose (CMC)
  T/C: 29 % of control
dose: 0.45 mg/kg/injection, schedule: Q## X000 (ip), vehicle: carboxymethylcellulose (CMC)
  T/C: 12 % of control
dose: 0.9 mg/kg/injection, schedule: Q01DX011 (ip), vehicle: carboxymethylcellulose (CMC)
  T/C: 5 % of control
